Measured values published in patent US5288725A, “Pyrroloquinoline Bradykinin antagonist” (Merck & Co., Inc., priority 1992, dated 1994).
Where no end group is shown, it is not given here.

Tests used:
BK β2 receptor = target: T1, BK β2 receptor (Cavia porcellus, UniProt O70526); test: [3H] BK radioligand binding, guinea pig ileum membranes; conditions: read-out: IC50, inhibition of [3H] BK binding
T1 construct: from tissue; host or cells: guinea pig ileum membranes
T1 sequence (O70526 1-372): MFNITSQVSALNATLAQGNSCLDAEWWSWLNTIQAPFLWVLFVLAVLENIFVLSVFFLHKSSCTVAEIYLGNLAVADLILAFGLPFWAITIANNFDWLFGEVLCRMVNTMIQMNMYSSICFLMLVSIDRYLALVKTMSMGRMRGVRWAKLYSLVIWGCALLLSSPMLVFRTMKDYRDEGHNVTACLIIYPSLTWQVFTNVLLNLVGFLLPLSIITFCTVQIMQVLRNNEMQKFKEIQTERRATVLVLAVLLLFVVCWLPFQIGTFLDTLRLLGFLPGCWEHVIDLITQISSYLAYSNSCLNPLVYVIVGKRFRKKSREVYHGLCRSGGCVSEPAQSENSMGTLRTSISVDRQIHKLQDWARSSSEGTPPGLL

α1-adrenergic receptor = α1-adrenergic receptor activity in rabbit aorta (agonist norepinephrine)
Description: (§1) Antagonism of BK-β1 receptors was measured using spiral strips of rabbit thoracic aorta as described by Regoli et. al., Eur. J. Pharmacol., 127,219 (1986).
(§2) The α1 -adrenergic and H1 histaminergic receptor activity of compounds were also assessed using rabbit aorta with norepinephrine and histamine, respectively, as agonists.

[1] = target: cholinergic muscarinic receptors; test: [3H] Quinuclidinyl benzilate binding, rat cerebral cortex membranes
[2] = target: T2, cholinergic muscarinic receptors (Rattus norvegicus, UniProt P10980); test: [3H] Quinuclidinyl benzilate binding, rat cardiac membranes
T2 construct: rat cardiac membranes; from tissue; host or cells: rat cardiac membranes
T2 sequence (P10980 1-466): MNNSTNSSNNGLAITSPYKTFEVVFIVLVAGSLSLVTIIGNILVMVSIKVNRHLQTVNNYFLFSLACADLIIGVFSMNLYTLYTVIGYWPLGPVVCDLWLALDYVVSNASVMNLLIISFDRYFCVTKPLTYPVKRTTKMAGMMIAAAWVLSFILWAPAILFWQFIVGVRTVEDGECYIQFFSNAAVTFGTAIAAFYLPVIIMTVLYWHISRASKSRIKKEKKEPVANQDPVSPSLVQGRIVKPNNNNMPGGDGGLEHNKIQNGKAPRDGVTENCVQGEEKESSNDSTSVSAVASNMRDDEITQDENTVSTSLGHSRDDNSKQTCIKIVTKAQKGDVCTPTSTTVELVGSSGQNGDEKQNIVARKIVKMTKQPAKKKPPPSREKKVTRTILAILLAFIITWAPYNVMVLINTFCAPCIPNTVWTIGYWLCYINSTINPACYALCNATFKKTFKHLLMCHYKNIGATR

[3] = target: T3, cholinergic muscarinic receptors (Cavia porcellus, UniProt H0VRN8); test: [3H] Quinuclidinyl benzilate binding, guinea pig ileum membranes
T3 construct: guinea pig ileum membranes as described by Watson; from tissue; host or cells: guinea pig ileum membranes
T3 sequence (H0VRN8 1-466): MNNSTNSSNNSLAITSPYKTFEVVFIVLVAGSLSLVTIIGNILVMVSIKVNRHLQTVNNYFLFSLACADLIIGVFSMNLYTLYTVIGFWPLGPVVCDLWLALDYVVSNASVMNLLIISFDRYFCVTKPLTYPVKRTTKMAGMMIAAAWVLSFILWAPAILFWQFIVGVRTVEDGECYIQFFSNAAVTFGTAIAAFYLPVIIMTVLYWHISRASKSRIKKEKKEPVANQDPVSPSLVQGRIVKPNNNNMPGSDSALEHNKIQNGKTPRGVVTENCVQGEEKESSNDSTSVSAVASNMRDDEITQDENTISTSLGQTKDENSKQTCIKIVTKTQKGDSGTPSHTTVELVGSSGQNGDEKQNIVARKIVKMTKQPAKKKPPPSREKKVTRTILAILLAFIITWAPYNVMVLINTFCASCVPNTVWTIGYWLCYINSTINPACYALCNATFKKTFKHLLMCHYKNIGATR

BK-β1 receptors = target: T4, BK-β1 receptors (Oryctolagus cuniculus, UniProt P48748); test: Antagonism of BK-β1 receptors, spiral strips of rabbit thoracic aorta (agonist des Arg9-BK); conditions: Schild analysis
T4 construct: spiral strips of rabbit thoracic aorta; from tissue; host or cells: rabbit thoracic aorta spiral strips
T4 sequence (P48748 1-352): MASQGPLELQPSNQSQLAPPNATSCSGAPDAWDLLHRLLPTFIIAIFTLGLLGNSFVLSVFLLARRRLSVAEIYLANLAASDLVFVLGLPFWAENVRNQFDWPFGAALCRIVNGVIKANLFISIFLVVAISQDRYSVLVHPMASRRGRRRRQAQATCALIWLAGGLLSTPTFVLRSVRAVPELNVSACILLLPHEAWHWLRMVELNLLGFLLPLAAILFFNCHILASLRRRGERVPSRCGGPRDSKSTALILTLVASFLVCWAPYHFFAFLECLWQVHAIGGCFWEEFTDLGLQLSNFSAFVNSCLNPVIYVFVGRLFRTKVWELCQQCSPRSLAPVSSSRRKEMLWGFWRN
Description: as §1

histamine H1 receptor = test: H1 histaminergic receptor activity in rabbit aorta (agonist histamine)
Description: as §1, §2

α1-adrenergic receptors = test: [3H] Prazosin radioligand binding, rat brain
[4] = tested on: bradykinin receptors of rat vas deferens; conditions: cited from earlier work
β2 receptors = conditions: cited from earlier work
β1 receptor = conditions: compared with BK; cited from earlier work

In the case of `CC(C)=CCNC(=N)NCCC[C@@H]1Nc2ccc(C(=O)OC/C(C)=C/CNC(=N)N)cc2[C@@H]2[C@H]1CCN2C(=N)NCC=C(C)C` (relative stereo) [Compound I], the IC50 (BK β2 receptor) is reported as 200 nM, the “mode of antagonism, α1 receptor” value (α1-adrenergic receptor) is reported as “competitive antagonist” and the “pA2 value, α1 receptor” value (α1-adrenergic receptor) is reported as 7.1. It also gave an IC50 [1] of 100 nM, an IC50 [2] of 100 nM and an IC50 [3] of 100 nM. The “mode of antagonism, β1 receptor” value (BK-β1 receptors) was “competitive β1 receptor antagonist”, the Kb (BK-β1 receptors; read-out: pA2 value, β1 receptor (converted)) was 2000 nM and the “mode of antagonism, histamine H1 receptor” value (histamine H1 receptor) was “competitive antagonist”. The “pA2 value, histamine H1 receptor” value (histamine H1 receptor) was 5.9 and the IC50 (α1-adrenergic receptors) was 60 nM.

In the case of RPPGFSPFR [BK], the “musculotropic or postjunctional action” value ([4]; isolated rat vas deferens) is listed as “contracted the smooth muscle generating an increased muscle tone” and the “neurogenic or presynaptic effect” value ([4]; isolated rat vas deferens, electrically driven twitches) is listed as “potentiated the magnitude of the muscular response to the electrically driven twitches”.

In the case of des-Arg^9 -bradykinin, the “activity at β2 receptors” value (β2 receptors) is given as “relatively inactive”, the “pre- or postsynaptic BK like responses” value ([4]; rat vas deferens) is given as “inactive” and the “β1 receptor agonist potency” value (β1 receptor) is given as “higher potency than BK”.
